Laboratory results: PMC6704710, “Preclinical evaluation of 3D185, a novel potent inhibitor of FGFR1/2/3 and CSF-1R, in FGFR-dependent and macrophage-dominant cancer models” (Journal of Experimental & Clinical Cancer Research : CR, 2019)

Tests used:
STK25(h) = target: T1, STK25(h) (Homo sapiens, UniProt O00506); experiment: Eurofins kinase panel; format: biochemical; settings: read-out: Inhibition rate (%)
T1 construct: purchased Eurofins (KinaseProfiler)

[1] = system: VEGF-induced primary HUVECs; experiment: VEGF-induced HUVEC proliferation (CCK-8); format: cell-based; settings: Homo sapiens, VEGF 100 ng/mL, 48 h
Procedure: Fig. 1 3D185 is a dual FGFR1/2/3 and CSF-1R inhibitor with high selectivity. a Chemical structure of 3D185. […]. H, A broad kinase profile of 3D185 against 372 protein kinases. […]. Representative data from three independent experiments are shown
The cancer cell lines indicated in Figure 3 were seeded in 96-well plates at a low density in growth medium. The next day, appropriate controls or the designated concentrations of the compounds were added to each well, and the cells were incubated for 72 h. HUVECs (passage 3) were seeded in 96-well plates in growth medium overnight and transferred to serum-free medium for 24 h. The following day, appropriate controls or the designated concentrations of the compounds were added to each well, and 100 ng/mL growth factor (bFGF or VEGF) was added to the indicated wells. The cells were incubated for 48 h. Finally, cell proliferation was determined using a sulforhodamine B (SRB) assay or a cell counting kit-8 (CCK-8) assay. […] IC50 values for proliferation curves were calculated using a 4-parameter logistic nonlinear regression model with SoftMax Pro Software (Molecular Devices, San Jose, USA).

Mer(h) = target: T2, Mer(h) (Homo sapiens, UniProt Q12866); experiment: Eurofins kinase panel; format: biochemical; settings: read-out: Inhibition rate (%)
T2 construct: purchased Eurofins (KinaseProfiler)
T2 sequence (Q12866 21-999): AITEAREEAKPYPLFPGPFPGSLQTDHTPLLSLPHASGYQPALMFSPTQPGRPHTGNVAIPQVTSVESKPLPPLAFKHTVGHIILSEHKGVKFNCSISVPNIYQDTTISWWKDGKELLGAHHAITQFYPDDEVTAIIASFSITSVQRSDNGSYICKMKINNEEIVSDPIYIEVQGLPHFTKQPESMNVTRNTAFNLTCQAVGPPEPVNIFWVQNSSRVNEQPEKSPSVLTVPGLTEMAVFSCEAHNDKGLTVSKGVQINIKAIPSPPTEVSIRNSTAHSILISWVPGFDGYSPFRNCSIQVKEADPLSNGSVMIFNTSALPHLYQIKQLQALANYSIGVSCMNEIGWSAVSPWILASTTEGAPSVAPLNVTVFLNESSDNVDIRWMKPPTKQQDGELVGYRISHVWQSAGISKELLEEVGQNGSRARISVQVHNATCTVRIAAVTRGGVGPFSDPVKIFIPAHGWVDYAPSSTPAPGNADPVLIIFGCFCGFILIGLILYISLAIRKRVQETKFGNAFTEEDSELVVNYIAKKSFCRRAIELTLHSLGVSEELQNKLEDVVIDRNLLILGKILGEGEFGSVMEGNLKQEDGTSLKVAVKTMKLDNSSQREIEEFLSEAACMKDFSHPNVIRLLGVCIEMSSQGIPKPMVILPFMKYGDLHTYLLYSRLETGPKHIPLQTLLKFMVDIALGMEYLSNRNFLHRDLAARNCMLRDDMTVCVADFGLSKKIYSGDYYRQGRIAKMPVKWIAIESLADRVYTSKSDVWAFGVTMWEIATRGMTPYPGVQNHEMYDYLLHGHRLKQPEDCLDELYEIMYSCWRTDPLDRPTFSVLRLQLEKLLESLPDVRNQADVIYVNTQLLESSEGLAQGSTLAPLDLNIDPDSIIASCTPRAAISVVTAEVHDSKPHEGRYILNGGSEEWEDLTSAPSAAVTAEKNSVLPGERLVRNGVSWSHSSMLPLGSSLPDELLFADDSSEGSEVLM

DMPK(h) = target: T3, DMPK(h) (Homo sapiens, UniProt Q09013); experiment: Eurofins kinase panel; format: biochemical; settings: read-out: Inhibition rate (%)
T3 construct: purchased Eurofins (KinaseProfiler)
T3 sequence (Q09013 1-629): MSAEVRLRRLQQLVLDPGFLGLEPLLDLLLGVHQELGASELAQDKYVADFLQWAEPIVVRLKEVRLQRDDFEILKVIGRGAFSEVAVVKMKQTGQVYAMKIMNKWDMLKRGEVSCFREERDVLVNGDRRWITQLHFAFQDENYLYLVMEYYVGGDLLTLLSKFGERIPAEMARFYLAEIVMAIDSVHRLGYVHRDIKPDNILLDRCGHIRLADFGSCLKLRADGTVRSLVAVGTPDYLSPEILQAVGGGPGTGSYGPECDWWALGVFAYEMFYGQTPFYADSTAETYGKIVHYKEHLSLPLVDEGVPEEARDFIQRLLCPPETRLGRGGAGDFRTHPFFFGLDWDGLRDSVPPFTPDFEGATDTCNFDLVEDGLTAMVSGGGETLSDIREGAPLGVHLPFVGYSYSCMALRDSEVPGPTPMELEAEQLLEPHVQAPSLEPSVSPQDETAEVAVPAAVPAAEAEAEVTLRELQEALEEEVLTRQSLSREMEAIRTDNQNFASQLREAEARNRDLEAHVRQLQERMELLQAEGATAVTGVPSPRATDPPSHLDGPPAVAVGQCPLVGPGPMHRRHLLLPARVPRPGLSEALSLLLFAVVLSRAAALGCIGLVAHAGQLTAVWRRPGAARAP

NEK11(h) = target: T4, NEK11(h) (Homo sapiens, UniProt Q8NG66); experiment: Eurofins kinase panel; format: biochemical; settings: read-out: Inhibition rate (%)
T4 construct: purchased Eurofins (KinaseProfiler)
T4 sequence (Q8NG66 1-645): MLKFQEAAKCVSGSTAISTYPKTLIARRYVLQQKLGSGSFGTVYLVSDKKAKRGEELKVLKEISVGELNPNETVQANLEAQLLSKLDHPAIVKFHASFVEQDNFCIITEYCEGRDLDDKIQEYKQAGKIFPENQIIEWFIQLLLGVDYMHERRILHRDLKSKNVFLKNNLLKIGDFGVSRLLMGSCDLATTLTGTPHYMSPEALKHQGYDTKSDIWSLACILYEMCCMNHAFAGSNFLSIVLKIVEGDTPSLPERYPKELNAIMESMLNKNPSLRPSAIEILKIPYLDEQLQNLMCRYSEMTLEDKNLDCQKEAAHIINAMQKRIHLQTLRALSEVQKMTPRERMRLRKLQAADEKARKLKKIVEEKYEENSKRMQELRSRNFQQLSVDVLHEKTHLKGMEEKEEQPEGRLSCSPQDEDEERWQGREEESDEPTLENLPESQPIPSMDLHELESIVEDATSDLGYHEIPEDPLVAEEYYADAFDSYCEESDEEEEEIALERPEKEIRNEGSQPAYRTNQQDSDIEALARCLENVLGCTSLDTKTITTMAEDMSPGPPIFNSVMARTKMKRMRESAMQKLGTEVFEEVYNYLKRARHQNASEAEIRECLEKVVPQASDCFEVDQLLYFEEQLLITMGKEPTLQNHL

T1 sequence (O00506 whole entry): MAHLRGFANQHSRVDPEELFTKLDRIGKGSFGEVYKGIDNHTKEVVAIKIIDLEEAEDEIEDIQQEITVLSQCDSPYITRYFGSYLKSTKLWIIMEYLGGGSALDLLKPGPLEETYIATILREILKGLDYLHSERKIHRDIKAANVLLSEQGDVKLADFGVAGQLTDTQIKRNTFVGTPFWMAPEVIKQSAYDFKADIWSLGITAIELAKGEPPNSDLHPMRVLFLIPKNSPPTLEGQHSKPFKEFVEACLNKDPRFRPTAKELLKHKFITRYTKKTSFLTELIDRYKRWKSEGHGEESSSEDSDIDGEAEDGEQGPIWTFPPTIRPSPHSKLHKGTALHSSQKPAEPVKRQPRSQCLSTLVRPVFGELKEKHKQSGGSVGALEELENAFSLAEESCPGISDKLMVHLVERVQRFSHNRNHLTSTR

COc1cc(OC)c(Cl)c(-c2ccc3c(NC(=O)c4ccc(N5CCNC(C)(C)C5)cc4)n[nH]c3n2)c1Cl [3D185]
inhibition at 0.01 µM (STK25(h); 10 nM): 7% | inhibition at 0.1 µM (STK25(h); 100 nM): 22% | inhibition at 1 µM (STK25(h); 1000 nM): 57% | IC50 [1]: 88.1 nM | inhibition at 0.01 µM (Mer(h); 10 nM): -9% | inhibition at 0.1 µM (Mer(h); 100 nM): -7% | inhibition at 1 µM (Mer(h); 1000 nM): 32% | inhibition at 0.01 µM (DMPK(h); 10 nM): 2% | inhibition at 0.1 µM (DMPK(h); 100 nM): 3% | inhibition at 1 µM (DMPK(h); 1000 nM): 2% | inhibition at 0.01 µM (NEK11(h); 10 nM): 5% | inhibition at 0.1 µM (NEK11(h); 100 nM): 15% | inhibition at 1 µM (NEK11(h); 1000 nM): 37%
